Earlier results, collected in US11512314B2, “Amphiphilic polynucleotides” (Duke University, priority 2019, dated 2022).
Where two headings read alike, the source gives them in different places.

What was measured:
[1] = free 5FU, reported value
[2] = small molecule drug
[3] = target: prostate-specific membrane antigen (PSMA) (Homo sapiens, UniProt Q04609); settings: binding to PSMA
prostate-specific membrane antigen (PSMA), sequence (Q04609 whole entry): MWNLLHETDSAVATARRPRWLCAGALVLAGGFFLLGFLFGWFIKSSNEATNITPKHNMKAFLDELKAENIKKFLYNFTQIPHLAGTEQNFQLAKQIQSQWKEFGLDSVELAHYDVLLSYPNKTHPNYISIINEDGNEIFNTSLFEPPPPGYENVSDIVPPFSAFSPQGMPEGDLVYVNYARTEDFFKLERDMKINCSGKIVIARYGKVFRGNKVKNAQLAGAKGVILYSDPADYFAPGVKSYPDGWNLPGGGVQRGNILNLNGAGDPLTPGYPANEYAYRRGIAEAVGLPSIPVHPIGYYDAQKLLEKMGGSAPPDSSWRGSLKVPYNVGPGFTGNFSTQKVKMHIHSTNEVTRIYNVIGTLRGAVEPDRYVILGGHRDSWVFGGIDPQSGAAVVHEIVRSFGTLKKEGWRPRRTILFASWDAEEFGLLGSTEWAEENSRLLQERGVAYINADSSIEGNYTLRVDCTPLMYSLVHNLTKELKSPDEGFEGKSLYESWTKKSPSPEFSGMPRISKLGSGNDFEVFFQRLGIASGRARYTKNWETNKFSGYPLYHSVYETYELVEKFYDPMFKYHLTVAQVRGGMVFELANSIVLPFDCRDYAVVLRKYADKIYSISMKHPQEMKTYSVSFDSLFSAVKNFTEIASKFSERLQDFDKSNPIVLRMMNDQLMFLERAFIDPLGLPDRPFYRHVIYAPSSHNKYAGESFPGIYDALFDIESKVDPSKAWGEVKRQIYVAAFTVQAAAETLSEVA

## O=c1[nH]cc(F)c(=O)[nH]1 [5FU]
[1]
  reported MTD: 15 to 20 mg/kg
[1]; listed as 5-FU
  reported MTD: 20 mg/kg
[2]
  half-life: 8 to 14 min

## 5′-GGGAGGACGAUGCGGAUCAGCCAUGUUUACGUCACUCCU-3′ (listed as RNA, chemistry not given here) [A10]
[3]
  Kd: 2.1 nM
